From patent US8901138B2, “Sulfoximine substituted quinazolines for pharmaceutical compositions” (Boehringer Ingelheim International GmbH, priority 2012, dated 2014) come the findings set out here.

The structures appear in SMILES notation.

In one test the target is T1, MNK2a (Homo sapiens, UniProt Q9HBH9).
T1 construct: made in house
The experiment in a line: MNK2a in vitro kinase assay (assay 1), ADP-Glo. It counts as biochemical. The note with it: preactivated GST-MNK2a, 20 μM ATP, read-out: MNK2 IC50. On the procedure:
A. MNK2a In Vitro Kinase Assay (Assay 1)
ASSAY SETUP: The inhibition of kinase activity of MNK2a was assessed using preactivated GST-MNK2a. The white, 384-well OptiPlate F plates were purchased from Perkin Elmer. The ADP-Glo Kinase Assay (including ultra pure ATP) was purchased from Promega (V9103). Activated MNK2a was obtained as described in WO2011/104340. The unlabeled eIF4E peptide (NH2-[…]—CONH2) (SEQ ID NO: 1), differing from Seq. ID No. 5 of WO 2011/104340 by the C-terminal —CONH2 group, was purchased from Thermo Fisher Scientific. All other materials were of highest grade commercially available. Compounds are tested in either serial dilutions or single dose concentrations. The compound stock solutions are 10 mM in 100% DMSO The serial compound dilutions are prepared in 100% DMSO followed by 1:27.3 intermediate dilution in assay buffer. The final DMSO concentration in assay will be <3%. In the 384-well plates 3 μl of test compound from the intermediate dilution is mixed with 4 μl of the activated MNK2 enzyme (final concentration of 10 nM) and 4 μl of the peptide (final concentration of 25 μM)/ultra pure ATP (final concentration of 20 μM), all dissolved in assay buffer. This step is followed by an incubation time of 90 min, then 10 μl of ADP Glo reagent are added, followed by 40 min of incubation. Then 20 μl of kinase detection reagent are admixed. The plates are sealed and after an incubation period of 30 min, the luminescence signal is measured in an Envision reader to determine the amount of produced ADP. All incubation steps are performed at room temperature. The assay buffer consists of 20 mM HEPES, 2 mM DTT, 0.01% BSA, 20 mM MgCl2 and 0.1% Pluronic F-127.
Each assay microtiter plate contains wells with vehicle controls instead of compound (1% DMSO in water) as reference for the high signal (100% CTL, high signal), and wells containing a potent MNK2 inhibitor (final 20 μM, 1% DMSO) as reference for low signal (0% CTL, low signal).
The luminescent signal generated is proportional to the ADP concentration produced and is correlated with activated MNK2 activity. The analysis of the data is performed by the calculation of the percentage of ATP consumption of activated MNK2 in the presence of the test compound compared to the consumption of ATP in the presence of activated MNK2 without compound. (RLU(sample)−RLU(low control))*100/(RLU(high value)−RLU(low control)) [RLU=relative luminescence units]
An inhibitor of the MNK2 enzyme will give values between 100% CTL (no inhibition) and 0% CTL (complete inhibition). Values of more than 100% CTL are normally related to compound/sample specific physico-chemical properties (e.g. solubility, light absorbance, fluorescence).
IC50 values based on dose response curves are calculated with the AssayExplorer software.
For orientation: ADP-Glo first removes unused ATP, then detects ADP through luciferase.

The next test concerns the target MNK1a (Homo sapiens, UniProt Q9BUB5). The experiment in a line: MNK1 in vitro kinase assay (assay 2), Z'-LYTE. The note with it: for inhibition at 1 µM: compound concentration of 1 μM; for IC50: pre-activated GST-MNK1a. Type of test: biochemical. An excerpt:
B. MNK1 In Vitro Kinase Assay (Assay 2)
MNK1 Data can be obtained from the MNK1 Z′-LYTE® assay. The MNK1 Z′-LYTE® screening protocol and assay conditions are also described on www.invitrogen.com.
The assay is described as follows:
The Z′-LYTE® biochemical assay employs a fluorescence-based, coupled-enzyme format and is based on the differential sensitivity of phosphorylated and non-phosphorylated peptides to proteolytic cleavage. The peptide substrate is labeled with two fluorophores—one at each end—that make up a FRET pair.
In the primary reaction, the kinase transfers the gamma-phosphate of ATP to a single tyrosine, serine or threonine residue in a synthetic FRET-peptide. In the secondary reaction, a site-specific protease recognizes and cleaves non-phosphorylated FRET-peptides. Phosphorylation of FRET-peptides suppresses cleavage by the Development Reagent. Cleavage disrupts FRET between the donor (i.e., coumarin) and acceptor (i.e., fluorescein) fluorophores on the FRET-peptide, whereas uncleaved, phosphorylated FRET-peptides maintain FRET. A ratiometric method, which calculates the ratio (the Emission Ratio) of donor emission to acceptor emission after excitation of the donor fluorophore at 400 nm, is used to quantitate reaction progress, as shown in the equation below. Emission Ratio=Coumarin Emission(445 nm)/Fluorescein Emission(520 nm)
ASSAY SETUP: The inhibition of kinase activity of MNK1a was assessed using pre-activated GST-MNK1a. The 2×MKNK1 (MNK1) mixture is prepared in 50 mM HEPES pH 7.5, 0.01% BRIJ-35, 10 mM MgCl2, 4 mM MnCl2, 1 mM EGTA, 2 mM DTT. The final 10 μL Kinase Reaction consists of 13.5-54 ng MKNK1 (MNK1) and 2 μM Ser/Thr 07 in 50 mM HEPES pH 7.5, 0.01% BRIJ-35, 10 mM MgCl2, 2 mM MnCl2, 1 mM EGTA, 1 mM DTT. After the 1 hour Kinase Reaction incubation, 5 μL of a 1:32768 dilution of Development Reagent A is added.
The Test Compounds are screened in 1% DMSO (final) in the well.
All Peptide/Kinase Mixtures are diluted to a 2× working concentration in the MNK1 Kinase Buffer.
All ATP Solutions are diluted to a 4× working concentration in Kinase Buffer (50 mM HEPES pH 7.5, 0.01% BRIJ-35, 10 mM MgCl2, 1 mM EGTA).
Development Reagent Solution:
The Development Reagent is diluted in Development Buffer
Bar-coded Corning, low volume NBS, 384-well plate (Corning Cat. #3676)
1. 2.5 μL-4× Test Compound
2. 5 μL-2× Peptide/Kinase Mixture
5. 60-minute Kinase Reaction incubation at room temperature
6. 5 μL-Development Reagent Solution
8. 60-minute Development Reaction incubation at room temperature
9. Read on fluorescence plate reader and analyze the data
The following equations are used for each set of data points: […]
Correction for Background Fluorescence: FSample−FITCFl Ctl
Emission Ratio (using values corrected for background fluorescence):Coumarin
Emission (445 nm)/Fluorescein Emission (520 nm)
% Phosphorylation (% Phos): 1−((Emission Ratio×F100%)−C100%)/((C0%−C100%)+[Emission Ratio×(F100%−F0%)])*100 % Inhibition: 1−(% PhosSample/% Phos0% Inhibition Ctl)*100 FI=Fluorescence Intensity C100%=Average Coumarin emission signal of the 100% Phos. Control C0%=Average Coumarin emission signal of the 0% Phos. Control F100%=Average Fluorescein emission signal of the 100% Phos. Control F0%=Average Fluorescein emission signal of the 0% Phos. Control Graphing Software
SelectScreen® Kinase Profiling Service uses XLfit from IDBS. The dose response curve is curve fit to model number 205 (sigmoidal dose-response model).

Chain of MNK1a (Q9BUB5 1-424 isoform Q9BUB5-2): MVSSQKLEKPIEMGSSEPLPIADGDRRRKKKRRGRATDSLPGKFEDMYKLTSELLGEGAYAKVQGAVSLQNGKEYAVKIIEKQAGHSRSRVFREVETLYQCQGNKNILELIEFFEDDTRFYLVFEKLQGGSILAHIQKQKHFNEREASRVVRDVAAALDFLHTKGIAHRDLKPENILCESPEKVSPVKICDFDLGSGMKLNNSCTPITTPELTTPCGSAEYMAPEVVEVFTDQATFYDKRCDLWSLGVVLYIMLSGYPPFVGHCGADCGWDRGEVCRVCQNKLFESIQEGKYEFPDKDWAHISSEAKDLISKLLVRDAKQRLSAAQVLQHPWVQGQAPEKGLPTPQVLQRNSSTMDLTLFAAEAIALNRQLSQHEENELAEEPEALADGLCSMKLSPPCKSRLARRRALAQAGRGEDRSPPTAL
T1 sequence (Q9HBH9 whole entry): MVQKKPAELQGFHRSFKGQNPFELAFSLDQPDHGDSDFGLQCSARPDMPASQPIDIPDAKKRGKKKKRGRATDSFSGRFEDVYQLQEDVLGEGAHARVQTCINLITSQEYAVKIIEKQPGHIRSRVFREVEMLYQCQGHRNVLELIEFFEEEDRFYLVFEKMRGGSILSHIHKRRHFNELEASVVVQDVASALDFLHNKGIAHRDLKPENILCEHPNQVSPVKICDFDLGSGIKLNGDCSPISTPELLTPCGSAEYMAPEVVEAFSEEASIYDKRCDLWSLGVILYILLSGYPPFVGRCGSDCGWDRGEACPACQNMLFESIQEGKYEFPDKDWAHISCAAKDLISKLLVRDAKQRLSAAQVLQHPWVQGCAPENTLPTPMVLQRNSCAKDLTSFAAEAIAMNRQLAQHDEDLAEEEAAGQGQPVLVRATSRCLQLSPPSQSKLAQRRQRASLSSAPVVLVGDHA

As usually defined, the IC50 is the concentration needed to halve the response being measured. By inhibition is commonly meant the relative decrease from the control value, in per cent. Low values mean a weak effect, high ones a strong effect. On to `CO[C@@H]1CO[C@H]2[C@@H]1OC[C@H]2Oc1cc(F)ccc1Nc1ncnc2cc(N=S(C)(C)=O)cc(Br)c12` [Example 1.20], for which the IC50 on MNK2a is 1 nM. The inhibition at 1 µM on MNK1a amounted to 100%.

For the molecule `CS(C)(=O)=Nc1cc(C(F)F)c2c(Nc3ccc(F)cc3O[C@H]3CCOC3)ncnc2c1` [Example 1.21], the IC50 at MNK2a came out at 2 nM; against MNK1a, 21 nM.

For `CS(C)(=O)=Nc1cc(O)c2c(Nc3ccc(F)cc3O[C@H]3CCOC3)ncnc2c1` [Example 1.22], at MNK2a, the IC50 stood at 25 nM. Further, 1 µM produced 56% inhibition against MNK1a.

As to `CS(C)(=O)=Nc1cc(OC(F)F)c2c(Nc3ccc(F)cc3O[C@H]3CCOC3)ncnc2c1` [Example 1.23], the half-inhibitory concentration (IC50) at MNK2a was 4 nM. Also, at MNK1a, the inhibition at 1 µM was 94%.

Consider `CO[C@@H]1CO[C@H]2[C@@H]1OC[C@H]2Oc1cc(F)ccc1Nc1ncnc2cc(N=S(C)(C)=O)cc(OC(F)F)c12` [Example 1.24], for which the IC50 at MNK2a is 1 nM; on MNK1a it was 18 nM.

`CS(C)(=O)=Nc1cc(OC2CC2)c2c(Nc3ccc(F)cc3O[C@H]3CCOC3)ncnc2c1` [Example 1.25]: at MNK2a, the IC50 came to 48 nM. On MNK1a, this molecule displayed an inhibition at 1 µM of 66%.

Take `O=S1(=Nc2cc(Cl)c3c(Nc4ccc(F)cc4O[C@H]4CCOC4)ncnc3c2)CCC1` [Example 1.26]: the IC50 at MNK2a was found to be 2 nM. Also, the inhibition at 1 µM on MNK1a was found to be 100%.

Regarding `O=S1(=Nc2cc(Cl)c3c(Nc4ccc(F)cc4O[C@@H]4CO[C@@H]5CCO[C@@H]54)ncnc3c2)CCC1` [Example 1.27], the IC50 came out at 1 nM at MNK2a and 11 nM against MNK1a.

In the case of `Cc1cc(N=S(C)(C)=O)cc2ncnc(Nc3ccc(F)cc3OC3(C)CC3)c12` [Example 1.28], the IC50 at MNK2a is 4 nM. This molecule gave an inhibition at 1 µM on MNK1a of 89%.

Consider `Cc1cc(N=S(C)(C)=O)cc2ncnc(Nc3ccc(F)cc3OC3(C)CCC3)c12` [Example 1.29], for which the IC50 at MNK2a was determined as 2 nM. Besides, testing at 1 µM against MNK1a gave an inhibition of 92%.

`Cc1cc(N=S(C)(C)=O)cc2ncnc(Nc3ccc(F)cc3OC3(C(F)(F)F)CCC3)c12` [Example 1.30]: on MNK2a, the IC50 was determined as 2 nM. This molecule also came in with an inhibition at 1 µM against MNK1a of 89%.

As for `Cc1cc(N=S(C)(C)=O)cc2ncnc(Nc3ccc(F)cc3OC3(C)COC3)c12` [Example 1.31], at MNK2a, the IC50 worked out at 13 nM. Besides, the inhibition at 1 µM against MNK1a was determined as 87%.

On to `Cc1cc(N=S(C)(C)=O)cc2ncnc(Nc3ccc(F)cc3OC3(C)CCOC3)c12` (centres unmarked) [Example 1.32], for which the IC50 is 7 nM on MNK2a and 149 nM against MNK1a.

Turning to `Cc1cc(N=S(C)(C)=O)cc2ncnc(Nc3ccc(F)cc3OC3(C)CC3C)c12` (centres unmarked) [Example 1.33], the figures for the IC50 on MNK2a and on MNK1a were 2 nM and 110 nM, respectively.

For the molecule `Cc1cc(N=S(C)(C)=O)cc2ncnc(Nc3ccc(F)cc3OC3CC(O)C3(C)C)c12` (centres unmarked) [Example 1.35], the IC50 at MNK2a was 5 nM. At MNK1a, testing at 1 µM gave an inhibition of 85%.

Regarding `CO[C@@H]1CCC[C@H]1Oc1cc(F)ccc1Nc1ncnc2cc(N=S(C)(C)=O)cc(C)c12` [Example 1.36], at MNK2a, the concentration for half-maximal inhibition (IC50) was found to be 2 nM. For the same molecule, at MNK1a, testing at 1 µM gave an inhibition of 84%.

Regarding `Cc1cc(N=S(C)(C)=O)cc2ncnc(Nc3cccnc3O[C@H]3CCCNC3)c12` [Example 1.37], the half-inhibitory concentration (IC50) at MNK2a is 4 nM; against MNK1a, 28 nM.

`Cc1cc(N=S(C)(C)=O)cc2ncnc(Nc3ccc(C#N)nc3OC3CCOCC3)c12` [Example 1.38]: on MNK2a, the IC50 came to 12 nM. The inhibition at 1 µM on MNK1a was 99%.

As for `Cc1cc(N=S(C)(C)=O)cc2ncnc(Nc3ccc(F)nc3O[C@H]3CCOC3)c12` [Example 1.40], the IC50 at MNK2a is 3 nM. This molecule also returned an inhibition at 1 µM at MNK1a of 94%.

Take `Cc1cc(N=S(C)(C)=O)cc2ncnc(Nc3ccc(Cl)nc3O[C@H]3CCOC3)c12` [Example 1.41]: the figures for the IC50 on MNK2a and against MNK1a were 3 nM and 74 nM, respectively.

`COc1cc(N=S(C)(C)=O)cc2ncnc(Nc3ccc(F)cc3O[C@@H]3CO[C@H]4[C@@H]3OC[C@H]4OC)c12` [Example 2.1]: the figures for the IC50 on MNK2a and against MNK1a were 1 nM and 11 nM, respectively.

As for `Cc1cc(N=S2(=O)CCOCC2)cc2ncnc(Nc3ccc(F)cc3O[C@@H]3CO[C@H]4[C@@H]3OC[C@H]4O)c12` [Example 2.2], the IC50 on MNK2a is 4 nM. Besides, at MNK1a, testing at 1 µM gave an inhibition of 95%.

With `Cc1cc(N=S2(=O)CCOCC2)cc2ncnc(Nc3ccc(F)cc3O[C@H]3CCOC3)c12` [Example 2.3], at MNK2a, the IC50 stood at 5 nM. The molecule further registered an inhibition at 1 µM on MNK1a of 89%.

In the case of `Cc1cc(N=S2(=O)CCCC2)cc2ncnc(Nc3cccnc3O[C@@H]3CO[C@H]4[C@@H]3OC[C@H]4O)c12` [Example 2.4], the IC50 at MNK2a worked out at 4 nM. At MNK1a, this molecule showed an inhibition at 1 µM of 97%.

As for `Cc1cc(N=S(C)(C)=O)cc2ncnc(Nc3cccnc3OC3CCOCC3)c12` [Example 2.6], the IC50 at MNK2a is 4 nM. Moreover, at 1 µM the inhibition on MNK1a was 92%.

`CCO[C@@H]1CO[C@H]2[C@@H]1OC[C@H]2Oc1cc(F)ccc1Nc1ncnc2cc(N=S(C)(C)=O)cc(C)c12` [Example 2.7]: at MNK2a, the IC50 was determined as 1 nM. This molecule came in with an inhibition at 1 µM on MNK1a of 98%.

On to `Cc1cc(N=S2(=O)CCCC2)cc2ncnc(Nc3ccsc3O[C@@H]3CCOC3)c12` [Example 2.8], for which, at MNK2a, the IC50 was 44 nM. On MNK1a, this molecule came in with an inhibition at 1 µM of 64%.

Regarding `Cc1cc(N=S(C)(C)=O)cc2ncnc(Nc3cccnc3O[C@H]3CC[C@H](NC(=O)OC(C)(C)C)CC3)c12` [Example 2.10], on MNK2a, the IC50 amounted to 4 nM. For the same molecule, the inhibition at 1 µM at MNK1a was 92%.
